Counter-ions that a name gives are not always drawn. Like-named read-outs stand apart in the source and are kept apart here.
Columns and labels:
Assay in all cases: biochemical
[1] = molecular target: T1, MMP-13 (Homo sapiens, UniProt P45452)
T1 construct: made in house; host or cells: baculovirus / insect cells
Summary of the method: (§1)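 Assay buffer 100 mM Tris-HCl, 100 mM NaCl, 10 mM CaCl2, pH 7.5. Activated MMP + inhibitor, 5 min RT; then methoxycoumarin peptide substrate, 4 μM final. Readout fluorescence; IC50 calculated.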

[2] = molecular target: T2, MMP-2 (Homo sapiens, UniProt P08253); conditions: read-out: MMP-2 IC50
T2 construct: made in house; provided by Dr. Gregory Goldberg, Washington University
T2 sequence (P08253 110-660): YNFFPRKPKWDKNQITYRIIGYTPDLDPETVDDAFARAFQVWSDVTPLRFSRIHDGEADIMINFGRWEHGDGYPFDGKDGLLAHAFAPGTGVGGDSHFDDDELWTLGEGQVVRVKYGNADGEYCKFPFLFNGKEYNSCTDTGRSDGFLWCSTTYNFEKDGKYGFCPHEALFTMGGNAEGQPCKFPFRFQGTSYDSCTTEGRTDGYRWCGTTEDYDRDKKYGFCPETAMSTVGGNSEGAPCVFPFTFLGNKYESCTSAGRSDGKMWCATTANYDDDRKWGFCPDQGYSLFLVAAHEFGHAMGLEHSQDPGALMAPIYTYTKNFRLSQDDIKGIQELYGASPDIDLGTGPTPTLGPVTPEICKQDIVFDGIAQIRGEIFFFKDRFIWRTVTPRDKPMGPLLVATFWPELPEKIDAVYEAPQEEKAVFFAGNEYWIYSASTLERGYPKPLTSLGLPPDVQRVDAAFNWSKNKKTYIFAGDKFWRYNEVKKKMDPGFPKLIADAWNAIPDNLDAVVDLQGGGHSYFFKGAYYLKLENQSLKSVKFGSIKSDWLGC
Summary of the method: as §1

[3] = molecular target: T3, MMP-1 (Homo sapiens, UniProt P03956); conditions: read-out: MMP-1 IC50
T3 construct: made in house; host or cells: transfected HT-1080 cells (provided by Dr. Harold Welgus, Washington University)
T3 sequence (P03956 100-469): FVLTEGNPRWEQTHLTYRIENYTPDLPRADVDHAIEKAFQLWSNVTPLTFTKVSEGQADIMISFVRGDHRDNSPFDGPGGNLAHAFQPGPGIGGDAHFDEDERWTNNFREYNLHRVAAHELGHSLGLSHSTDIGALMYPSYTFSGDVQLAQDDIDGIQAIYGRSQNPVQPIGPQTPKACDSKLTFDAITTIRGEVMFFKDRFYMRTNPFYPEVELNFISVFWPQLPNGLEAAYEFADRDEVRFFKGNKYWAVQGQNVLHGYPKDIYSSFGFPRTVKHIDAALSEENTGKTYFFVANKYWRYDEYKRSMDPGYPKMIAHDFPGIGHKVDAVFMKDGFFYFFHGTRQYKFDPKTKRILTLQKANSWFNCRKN
Summary of the method: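 APMA- or trypsin-activated enzymes were preincubated with inhibitor for 5 min at room temperature, then the fluorogenic substrate MCA-Pro-Leu-Gly-Leu-Dpa-Ala-Arg-NH2 was added to a final 4 μM.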

[4] = recombinant human MMP-13, MCA peptide substrate 4 μM, pH 7.5, room temperature, read-out: MMP-13 IC50
[5] = recombinant human MMP-2, MCA peptide substrate 4 μM, pH 7.5, room temperature
[6] = recombinant human MMP-1, MCA peptide substrate 4 μM, pH 7.5, room temperature

Compound: O=C(NO)C1(S(=O)(=O)c2ccc(N3CCC(Oc4cccc5ccccc45)CC3)cc2)CCOCC1 [Example 614]
- IC50 [1, 4]: 22 nM
- IC50 [2, 5]: 25.4 nM
- IC50 [3, 6]: > 10 µM

Compound: O=C(NO)C1(S(=O)(=O)c2ccc(Oc3ccc(OC(F)(F)F)cc3)cc2)CCN(S(=O)(=O)c2ccccc2)CC1 [Example 194]
- IC50 [1, 4]: 0.3 nM
- IC50 [2, 5]: < 0.1 nM
- IC50 [3, 6]: > 7.3 µM

Compound: Cc1cc(C(=O)C2CCN(c3ccc(S(=O)(=O)C4(C(=O)NO)CCOCC4)cc3)CC2)ccc1Cl [Example 858]
- IC50 [1, 4]: 3.7 nM
- IC50 [2, 5]: 600 nM
- IC50 [3, 6]: > 10 µM

Compound: COCCN1CCC(C(=O)NO)(S(=O)(=O)c2ccc(N3CCC(C(=O)N4CC(C)CC(C)C4)CC3)cc2)CC1 (stereo not drawn) [Example 233, 4-[[4-[4-[(3,5-Dimethyl-1-piperidinyl)carbonyl]-1-piperidinyl]-phenyl]sulfonyl]-N-hydroxy-1-(2-methoxyethyl)-4-piperidinecarboxamide, Monohydrochloride]
- IC50 ([1]; read-out: MMP-13 IC50): 43.5 nM
- IC50 [2]: 2050 nM
- IC50 [3]: > 10 µM

Compound: O=C(NO)C1(S(=O)(=O)c2ccc(N3CCN(C4CCCC4)CC3)cc2)CCOCC1 [Example 488]
- IC50 [1, 4]: 140 nM
- IC50 [2, 5]: 370 nM
- IC50 [3, 6]: > 10 µM

Compound: O=C(NO)C1(S(=O)(=O)c2ccc(N3CCC(c4ccccc4-c4ccc(F)cc4)CC3)cc2)CCOCC1 [Example 543]
- IC50 ([1]; MMP-13 IC50 (nM), recombinant human MMP-13, MCA peptide substrate 4 μM, pH 7.5, room temperature): 33.7 nM
- IC50 [2, 5]: 5400 nM
- IC50 [3, 6]: > 10 µM

Compound: O=C(NO)C1(S(=O)(=O)c2ccc(N3CC[C@@H](COCc4ccc(OC(F)(F)F)cc4)C3)cc2)CCOCC1 [Example 527]
- IC50 [1, 4]: 6700 nM
- IC50 [2, 5]: 9000 nM
- IC50 [3, 6]: > 10 µM

Compound: O=C(NO)C1(S(=O)(=O)c2ccc(Oc3ccncc3)cc2)CCS(=O)(=O)CC1 [Example 160]
- IC50 [1, 4]: 300 nM
- IC50 [2, 5]: 90 nM
- IC50 [3, 6]: > 10 µM

Compound: CC1CC(C)CN(C(=O)C2CCN(c3ccc(S(=O)(=O)C4(C(=O)NO)CCN(C(=O)CNCc5ccncc5)CC4)cc3)CC2)C1 (stereo not drawn) [Example 285]
- IC50 [1, 4]: 19.3 nM
- IC50 [2, 5]: 9000 nM
- IC50 [3, 6]: > 10 µM

Compound: Cc1cccc(C(=O)C2CCN(c3ccc(S(=O)(=O)C4(C(=O)NO)CCOCC4)cc3)CC2)c1 [Example 653]
- IC50 [1, 4]: 0.8 nM
- IC50 [2, 5]: 160 nM
- IC50 [3, 6]: > 10 µM

Compound: O=C(NO)C1(S(=O)(=O)c2ccc(Oc3ccc(OC(F)(F)F)cc3)cc2)CCN(CCn2ccnc2)CC1 [Example 261, N-Hydroxy-1-[2-(1H-imidazol-1-yl)ethyl]-4-[[4-[4-(trifluoromethoxy)phenoxy]phenyl]sulfonyl]-4-piperidinecarboxamide, Dihydrochloride]
- IC50 [1, 4]: < 0.1 nM
- IC50 [2, 5]: < 0.1 nM
- IC50 [3, 6]: 3.7 µM

Compound: O=C(CN1CCOCC1)N1CCC(C(=O)NO)(S(=O)(=O)c2ccc(Oc3ccc(C(F)(F)F)cc3)cc2)CC1 [Example 319]
- IC50 [1, 4]: 0.5 nM
- IC50 [2, 5]: 0.2 nM
- IC50 [3, 6]: > 10 µM

Compound: O=C(NO)C1(S(=O)(=O)c2ccc(N3CCC(Oc4ccc([N+](=O)[O-])c(C(F)(F)F)c4)CC3)cc2)CCOCC1 [Example 569]
- IC50 [1, 4]: 16.9 nM
- IC50 [2, 5]: 87.7 nM
- IC50 [3, 6]: > 10 µM

Compound: CCOc1cccc(OC2CCN(c3ccc(S(=O)(=O)C4(C(=O)NO)CCOCC4)cc3)CC2)c1 [Example 640]
- IC50 [1, 4]: 4.2 nM
- IC50 [2, 5]: 15.8 nM
- IC50 [3, 6]: > 10 µM

Compound: O=C(NO)C1(S(=O)(=O)c2ccc(Oc3ccc(SC(F)(F)F)cc3)cc2)CCNCC1 [Example 231, N-Hydroxy-4-[[4-[4-[(trifluoromethyl)thio]phenoxy]phenyl]-sulfonyl]-4-piperidinecarboxamide, Monohydrochloride]
- IC50 [1, 4]: 0.2 nM
- IC50 [2, 5]: 0.1 nM
- IC50 [3, 6]: > 10 µM

Compound: O=C(C1CCN(c2ccc(S(=O)(=O)C3(C(=O)NO)CCOCC3)cc2)CC1)N1CCN(CCN2CCOCC2)CC1 [Example 42]
- IC50 ([1]; read-out: MMP-13 IC50): 82.5 nM
- IC50 [2]: > 10000 nM
- IC50 [3]: > 10 µM

Compound: O=C(C1CCN(c2ccc(S(=O)(=O)C3(C(=O)NO)CCOCC3)cc2)CC1)N1CCN(c2ncc(C(F)(F)F)cc2Cl)CC1 [Example 41]
- IC50 ([1]; read-out: MMP-13 IC50): 70 nM
- IC50 [2]: 5400 nM
- IC50 [3]: > 10 µM

Compound: O=C(c1ccccc1)N1CCC(C(=O)NO)(S(=O)(=O)c2ccc(Oc3ccc(C(F)(F)F)cc3)cc2)CC1 [Example 92]
- IC50 [1, 4]: 0.8 nM
- IC50 [2, 5]: 0.1 nM
- IC50 [3, 6]: > 10 µM

Compound: O=C(c1ccc(OC(F)(F)F)cc1)N1CCC(C(=O)NO)(S(=O)(=O)c2ccc(Oc3ccc(C(F)(F)F)cc3)cc2)CC1 [Example 140]
- IC50 [1, 4]: 11.4 nM
- IC50 [2, 5]: 0.8 nM
- IC50 [3, 6]: > 10 µM

Compound: CC1CC(C)CN(C(=O)C2CCN(c3ccc(S(=O)(=O)C4(C(=O)NO)CCN(C(=O)CN5CCC(O)CC5)CC4)cc3)CC2)C1 (stereo not drawn) [Example 304]
- IC50 [1, 4]: 30.6 nM
- IC50 [2, 5]: 7000 nM
- IC50 [3, 6]: > 10 µM

Compound: O=C(Nc1ccncn1)C1CCN(c2ccc(S(=O)(=O)C3(C(=O)NO)CCOCC3)cc2)CC1 [Example 74]
- IC50 [1, 4]: 9 nM
- IC50 [2, 5]: 80 nM
- IC50 [3, 6]: > 10 µM

Compound: O=C(NO)C1(S(=O)(=O)c2ccc(OC3CCC(OCc4ccccc4Cl)C3)cc2)CCOCC1 (stereo not drawn) [Example 688]
- IC50 [1, 4]: 17.6 nM
- IC50 [2, 5]: 110 nM
- IC50 [3, 6]: > 10 µM

Compound: COCCN1CCN(CC(=O)N2CCC(C(=O)NO)(S(=O)(=O)c3ccc(Oc4ccc(C(F)(F)F)cc4)cc3)CC2)CC1 [Example 330]
- IC50 [1, 4]: 0.5 nM
- IC50 [2, 5]: 0.7 nM
- IC50 [3, 6]: > 10 µM

Compound: O=C(CS(=O)(=O)c1ccc(Oc2ccncc2)cc1)NO [Example 227]
- IC50 [1, 4]: 28.8 nM
- IC50 [2, 5]: 21.7 nM
- IC50 [3, 6]: > 10 µM

Compound: CCNCc1ccc(COC2CCN(c3ccc(S(=O)(=O)C4(C(=O)NO)CCOCC4)cc3)CC2)cc1 [Example 476]
- IC50 [1, 4]: 25.4 nM
- IC50 [2, 5]: 140 nM
- IC50 [3, 6]: > 10 µM

Compound: CC1CC(C)CN(C(=O)C2CCN(c3ccc(S(=O)(=O)C4(C(=O)NO)CCN(C(=O)OCC5c6ccccc6-c6ccccc65)CC4)cc3)CC2)C1 (stereo not drawn) [Example 274]
- IC50 ([1]; read-out: MMP-13 IC50): 160 nM
- IC50 [2]: > 10000 nM
- IC50 [3]: > 10 µM

Compound: O=C(NO)C1(S(=O)(=O)c2ccc(N3CC4CC3CN4Cc3ccccc3)cc2)CCOCC1 (stereo not drawn) [Example 493]
- IC50 [1, 4]: > 10000 nM
- IC50 [2, 5]: > 10000 nM
- IC50 [3, 6]: > 10 µM

Compound: O=C(NO)C1(S(=O)(=O)c2ccc(N3CCC(OCc4ccc(COCC5CCCCC5)cc4)CC3)cc2)CCOCC1 [Example 604]
- IC50 [1, 4]: 20 nM
- IC50 [2, 5]: 2500 nM
- IC50 [3, 6]: > 10 µM

Compound: Cc1ccc(S(=O)(=O)N2CCN(c3ccc(S(=O)(=O)C4(C(=O)NO)CCOCC4)cc3)CC2)cc1 [Example 674]
- IC50 [1, 4]: 8 nM
- IC50 [2, 5]: 110 nM
- IC50 [3, 6]: > 10 µM

Compound: O=C(NO)C1(S(=O)(=O)c2ccc(N3CCC(Oc4ccc(Cl)cc4F)CC3)cc2)CCOCC1 [Example 641]
- IC50 [1, 4]: 4 nM
- IC50 [2, 5]: 13.7 nM
- IC50 [3, 6]: > 10 µM

Compound: O=C(NO)C1(S(=O)(=O)c2ccc(N3CCC(OCc4ccc(Cl)cc4)CC3)cc2)CCOCC1 [Example 170]
- IC50 [1, 4]: 2.4 nM
- IC50 [2, 5]: 200 nM
- IC50 [3, 6]: > 10 µM

Compound: O=C(NO)C1(S(=O)(=O)c2ccc(N3CCC(OCc4ccc(COCC(F)(F)C(F)(F)C(F)(F)C(F)F)cc4)CC3)cc2)CCOCC1 [Example 611]
- IC50 [1, 4]: 139 nM
- IC50 [2, 5]: 1800 nM
- IC50 [3, 6]: > 10 µM

Compound: O=C(NO)C1(S(=O)(=O)c2ccc(N3CCN(C4CCCCC4)CC3)cc2)CCOCC1 [Example 489]
- IC50 [1, 4]: 770 nM
- IC50 [2, 5]: 1900 nM
- IC50 [3, 6]: > 10 µM

Compound: Tetrahydro-4-[[4-(pentaflourooxy)phenyl]sulfonyl]-2H-thiopyran-4-carboxamide [Example 225]
- IC50 [1, 4]: 180 nM
- IC50 [2, 5]: 41.8 nM
- IC50 [3, 6]: > 10 µM

Compound: COc1ccccc1C1CCN(c2ccc(S(=O)(=O)C3(C(=O)NO)CCSCC3)cc2)CC1 [Example 153]
- IC50 ([1]; read-out: MMP-13 IC50): 50 nM
- IC50 [2]: 5000 nM
- IC50 [3]: > 10 µM

Compound: Cc1cccc(N2CCN(c3ccc(S(=O)(=O)C4(C(=O)NO)CCOCC4)cc3)CC2)c1C [Example 490]
- IC50 [1, 4]: 61 nM
- IC50 [2, 5]: 3000 nM
- IC50 [3, 6]: > 10 µM

— US6750228B1, “Aromatic sulfone hydroxamic acid metalloprotease inhibitor” (priority 1997, dated 2004)
